Assay results published in patent US5622725A, “Wound disinfection and repair” (Alcide Corporation, priority 1996, dated 1997).

What was measured:
S. epidermidis biofilms = assay: Sterilization of S. epidermidis biofilms by diluted 50 ppm ClO2 or formol saline; type: cell-based, Staphylococcus epidermidis; settings: for minimal time of exposure to effect sterilization: 22° C.
Method: Antibiotic activity against S. epidermidis biofilms are determined using a supravital dye which acts as an electron acceptor in coupled oxidative systems in biofilm bacteria. The method allows the bacteria to be examined undisturbed within the biofilm matrix in situ. Briefly stated, the biofilms are exposed to antibiotic solutions and incubated at […] for varying periods of time. Positive (viable, 1% peptone water) and negative (sterilized, 4% formol-peptone) controls are included in all experiments. After a designated exposure at 22° C. for varying periods of time between 15 seconds to 6 hours, the biofilms are rinsed twice in sterile water and allowed to drain. They are then placed in a flat agar medium incorporating substantive dyes and incubated at 37° C. for 4 hours, then 24 hours. Viability is assessed visually by a change in dye color and confirmed after 24 hours by mechanically scraping and subsequently culturing the biofilms. Sterilization is indicated by the absence of color changes and confirmed by culture of both intact and mechanically fragmented biofilms. Inhibition of growth is indicated by a lack of color change after a 4-hour incubation and confirmed by a positive color change by 24 hours.
This conclusion is underscored in studies that assess the efficacy of methods employed using compositions of the invention in combination with an infusate used in C A P D and C C P D practice, Inpersol® Abbott Laboratories, Montreal, Canada, which contains 4.25% dextrose and has a pH of 5.2. A 50 ppm ClO2 solution is diluted from 1:2 to 1:10 with normal saline (denoted below as NS), Inpersol® peritoneal dialyzate (denoted as PD), and peptone-saline (a standardized protein digest obtained from Oxoid, denoted as PS). Four percent formol saline, a known potent environmental disinfectant of considerable toxicity, is used as a reference. The results are expressed as the minimal time of exposure at 22° C. to effect sterilization of S. epidermidis biofilms: […]

[1] = Free radical signal by luminometer (modified luminol assay); settings: One hundred-fold dilutions, within one minute after mixing
Method: (§1) ClO2 (75 ppm) is generated by mixing 0.25% chlorite and 1.4% lactic acid. One hundred-fold dilutions are tested within one minute after mixing using electron paramagnetic spectroscopy (ESR) and a LKB luminometer.
The luminometer assay utilizes a modified luminol assay for radical detection. Luminol (LH2) reacts with free radicals (R·) as follows: […]
LOO^- →L2 + AP* (aminophthalate dianion, active state)
The pH optimum for the reaction is 10 to 12. The assay is standardized with an enzymatic system in which the generation of free radicals could be quantified by measuring generation of ·O2^-, obtained with the following reaction, […]
hypoxanthine+xanthine oxidase→urate+·O2^- by the reduction of ferricytochrome C.

[2] = Free radical signal by electron spin resonance (ESR); settings: One hundred-fold dilutions, within one minute after mixing
Method: as §1
For the ESR assay, the chlorine dioxide solution is frozen in liquid nitrogen to -167° C. and electron spin resonance analyzed using a Varian E3 instrument.

cows' udders = assay: Infusion into cows' udders, immune response; type: in vivo, cow; settings: 350 ppm in buffered saline
Text: It is an advantage of the invention that solutions containing fairly significant levels of ClO2 are particularly well tolerated by tissues. […] ClO2 is capable of being reduced to lower oxidation states, such as chlorite and chloride, upon contact with organic materials, but is less reactive than, for example, hypochlorite, and a volume of ClO2 -containing saline is expected to retain significant antimicrobial activity when used to flush out organic debris from an incised area. Appropriate use levels of ClO2 will vary, depending on the amount of organic detritus in the site, but generally concentrations of about 5 to 250 ppm in approximately isotonic solution can be used with good effect.

[3] = tested on: polymorphonuclear leukocytes; assay: Chemotaxis, cell integrity (lactate dehydrogenase) and morphology of isolated polymorphonuclear leukocytes; type: cell-based; settings: in vitro, ClO2 solution 3 to 300 ppm
Text: To test whether methods of the invention can control the inflammatory response, isolated polymorphonuclear leukocytes, which are among the first cells to be found at a wound or a site of potential infection, are studied with respect to their response to chlorine dioxide solutions and compared with a control containing ibuprofen, a known non-steroid anti-inflammatorycompound. The choice of in vitro assay is chemotaxis.
Isolated polymorphonuclear leukocytes are studied with respect to their response to a ClO2 solution varying in concentration from 3 to 300 ppm and an ibuprofen control. Cellular response and integrity (chemotaxis)is assayed in vitro after incubating with both compounds by measuring lactate dehydrogenase activity and/or release concurrently with observing morphology using scanning electron microscopy and/or transmission electron microscopy.
The results are graphically illustrated in FIGS. 1 to 3. The x-axis in the figures show dilutions of a 0.5 mg/ml ibuprofen solution, and chlorine dioxide solutions prepared by combining lactic acid with sodium chlorite and diluting to yield chlorine dioxide concentrations as follows: […], 1:10 is 60 ppm ClO2, 1:20 is 30 ppm ClO2, 1:50 is 12 ppm ClO2, 1:100 is 6 ppm ClO2, 1:150 is 4 ppm ClO2, and 1:200 is 3 ppm ClO2.
A negative control is denoted by .smallcircle.. […]

## [O][Cl+][O-] [ClO2, chlorine dioxide]
S. epidermidis biofilms; dilution 1/2 in normal saline (NS)
  minimal time of exposure to effect sterilization: 0.25 min
S. epidermidis biofilms; dilution 1/2 in peptone-saline (PS)
  minimal time of exposure to effect sterilization: 1 min
S. epidermidis biofilms; dilution 1/2 in peritoneal dialyzate (PD)
  minimal time of exposure to effect sterilization: 0.083 min
S. epidermidis biofilms; dilution 1/3 in normal saline (NS)
  minimal time of exposure to effect sterilization: 0.5 min
S. epidermidis biofilms; dilution 1/3 in peptone-saline (PS)
  minimal time of exposure to effect sterilization: 3 min
S. epidermidis biofilms; dilution 1/3 in peritoneal dialyzate (PD)
  minimal time of exposure to effect sterilization: 1 min
S. epidermidis biofilms; dilution 1/5 in normal saline (NS)
  minimal time of exposure to effect sterilization: 5 min
S. epidermidis biofilms; dilution 1/5 in peptone-saline (PS)
  minimal time of exposure to effect sterilization: 60 min
S. epidermidis biofilms; dilution 1/5 in peritoneal dialyzate (PD)
  minimal time of exposure to effect sterilization: 5 min
S. epidermidis biofilms; dilution 1/7 in normal saline (NS)
  minimal time of exposure to effect sterilization: 15 min
S. epidermidis biofilms; dilution 1/7 in peptone-saline (PS)
  minimal time of exposure to effect sterilization: 240 min
S. epidermidis biofilms; dilution 1/7 in peritoneal dialyzate (PD)
  minimal time of exposure to effect sterilization: 7 min
S. epidermidis biofilms; dilution 1/10 in normal saline (NS)
  minimal time of exposure to effect sterilization: 60 min
S. epidermidis biofilms; dilution 1/10 in peptone-saline (PS)
  minimal time of exposure to effect sterilization: 1440 min
S. epidermidis biofilms; dilution 1/10 in peritoneal dialyzate (PD)
  minimal time of exposure to effect sterilization: 10 min
S. epidermidis biofilms; diluted with peptone solutions
  effect of diluting with peptone solutions on sterilizing activity: inhibitory effect on the sterilizing activity
S. epidermidis biofilms; diluted with peritoneal dialysis solution
  effect of peritoneal dialysis solution on antimicrobial activity: markedly enhances antimicrobial activity
[1]
  free radical signal: A strong free radical signal is generated
[2]
  free radical signal: A strong free radical signal is generated
cows' udders
  safety of infusion / immune response: safely infusable into cows' udders without stimulation of any immune response
[3]
  effect on chemotaxis / quality and morphology of polymorphonuclear leukocytes: control chemotaxis by affecting the quality and morphology of the associated polymorphonuclear leukocytes
[3]; listed as ClO2 solution
  effect on chemotaxis / quality and morphology of polymorphonuclear leukocytes: affected both the quality and morphology of polymorphonuclear leukocytes
